We go through twelve compounds from patent US20260102428A1, “COMPOSITIONS AND METHODS FOR THE INHIBITION OF METHICILLIN RESISTANT STAPHYLOCOCCUS AUREUS” (priority 2022, published 2026).

pKd: −log10 of the molar value. Several values for one entry are separate records, joined by “and”; a condition that tells them apart may be missing. Identical values can stand only once. Counter-ions that a name gives are not always drawn. Bridge positions count the residues as written; N and C are the ends. Square brackets hold non-standard residues; d marks the D form. Peptide text beside a SMILES is read from it. * marks the point of attachment. Ileψ(thiazoline)Cys = CC[C@H](C)[C@H](N)C1=N[C@H](C(=O)*)CS1; dOrn = NCCC[C@@H](N)C(=O)O

For series [1] the following is noted: reported values; cited from earlier work.
The test system of series [2] is MRSA strain USA300-LAC. Briefly: Zn(II)/Cu-dependent antibiotic screening of the Selleckchem bioactives library (resazurin growth readout). The format is cell-based, Staphylococcus aureus. As to conditions: compound 10 μM, hit = growth reduced by at least 50%; for Activity class in Zn-dependent screening: with vs without 25 μM ZnSO4, 1×RPMI 1640; for Activity class in Cu-dependent screening: with vs without 25 μM CuSO4, 1×RPMI 1640.

Series [3] in a line: Binding constant determination by UV/Vis-absorption titration. Here is the method:
Binding constants were determined using UV/Vis-absorption spectroscopy by titrating AVB with Cu(I), Cu(II), and Zn(II). Briefly, 1 mM AVB in 100% anhydrous DMSO was titrated in HEPES (4-(2-hydroxyethyl)-1-piperazineethanesulfonic acid) buffer (pH=7.2-7.4) with 800 μM CuBr, CuSO4, or ZnSO4 at the following concentrations: 0 μM, 25 μM, 50 μM, 75 μM, 100 μM, and 150 μM. Once the gradient of solutions was prepared, full spectrum UV/Vis-absorption spectroscopy was performed to detect characteristic spectral changes that occur as a consequence of metal cation binding. Binding constants were calculated by importing the spectra of individual titrations with each metal into the UV 1:1 Bindfit program.

Series [4] relates to USA300-LAC. Briefly: Minimal inhibitory concentration by dose-response curves (A600). The class given is cell-based, Staphylococcus aureus. To be noted: for Antibacterial activity (MIC) without metal: 1×RPMI 1640, no added metal.
For series [5], the system named is human cells. The series can be described thus: Eukaryotic toxicity assays, overall statement. The class given is cell-based. To be noted: 0.4-30 μM ± 15 μM Zn, 24 hours.
The test system of series [6] is USA300-LAC. As to conditions: ZnSO4 titrated against compound, 1×RPMI 1640.
For series [7], the system named is erythromycin-resistant group A Streptococcus, methicillin-resistant Staphylococcus aureus, and vancomycin-resistant Enterococcus. As to conditions: cited from earlier work.
Series [8] has as its system clinical multidrug-resistant MRSA isolates. The series can be described thus: Minimal inhibitory concentration against clinical isolates (dose-response curves).
Protocol: Growth was determined after 20 h of incubation at 37° C. using A600 measurements as a readout. Percentage growth was calculated by normalizing the A600 measurements relative to that of the compound-untreated control of each metal condition. Data represent the mean±SEM (n=3 biological replicates, 3 technical replicates each). […] Data represent the mean±SEM (n=3 biological replicates, 3 technical replicates each).
All S. aureus strains utilized in this study were routinely cultured in Mueller-Hinton medium at 37° C. shaking at 180 rpm prior to transfer into experiment-specific media. […] Lastly, clinical multi-drug resistant MRSA strains were isolated, characterized for clinical drug resistance, de-identified, and obtained from UAB Laboratory Medicine.
The minimal inhibitory concentration (MIC) of the tested compounds was determined using dose-response curves as previously described. Briefly, each strain was cultured to mid-exponential phase in MH medium, as determined by OD600 measurement. S. aureus cultures were then normalized to an OD600 of 0.005 for transfer into the assay plates. Each strain was treated with compounds serially titrated in the assay medium in 96-well flat-bottom plastic plates with or without either CuSO4 or ZnSO4. Compound-untreated samples for each metal condition were used as negative controls. S. aureus were treated for 18-20 hours at 37° C. and 5% CO2. Following the treatment period, bacterial growth was determined by measuring the absorbance of each well at 600 nm using a Biotek Cytation 3 plate reader. Measurements were then background adjusted and normalized to either the untreated control or the metal only control.
Series [9] deals with S. aureus JE2. The format is cell-based, Staphylococcus aureus. As to conditions: 0.25-4× MIC, daily passage 1:100.
[10] abbreviates: CuBr, HEPES buffer pH 7.2-7.4, UV 1:1 Bindfit.
Where [11] appears, read: CuSO4, HEPES buffer pH 7.2-7.4, UV 1:1 Bindfit.
[12] abbreviates: ZnSO4, HEPES buffer pH 7.2-7.4, UV 1:1 Bindfit.

In the case of `O=C(O)CN(CCN(CC(=O)O)CC(=O)O)CC(=O)O` [EDTA, 2,2′,2″,2′″-(Ethane-1,2-diyldinitrilo)tetraacetic acid], the “KD of high-affinity metal chelators” value in series [1] was “picomolar to femtomolar range”.

Consider `Clc1ccc(C(Cn2ccnc2)OCc2ccsc2Cl)c(Cl)c1` (stereo not shown) [tioconazole], for which the “Activity class in Zn-dependent screening” value in series [2] is “Zn-activated”.

As to `CC/C(=C(\c1ccccc1)c1ccc(OCCN(C)C)cc1)c1ccccc1` [tamoxifen], the “Activity class in Zn-dependent screening” value in series [2] is “Zn-activated”.

`COc1ccc(C(=O)CC(=O)c2ccc(C(C)(C)C)cc2)cc1` [Avobenzone, 1-(4-tert-butylphenyl)-3-(4-methoxyphenyl)propane-1,3-dione]: the “Activity class in Cu-dependent screening” value in [2] was “activated by both Zn and Cu”. For the same compound, the “Activity class in Zn-dependent screening” value in series [2] was “activated by both Zn and Cu”. Further, the KA is 6900 M⁻¹ in series [3] (setting [10]), 225,279 M^−1 in series [3] (setting [11]) and 168,982 M^−1 in [3] (setting [12]). For the same compound, the pKd in [3] (setting [10]) was 3.94; in [3] (setting [11]) it was 5.35; in [3] (CuSO4, HEPES buffer pH 7.2-7.4, UV 1:1 Bindfit, listed as AVB), 5.36; in series [3] (setting [12]), 5.23; in [3] (ZnSO4, HEPES buffer pH 7.2-7.4, UV 1:1 Bindfit, listed as AVB) it was 5.23. Moreover, the “Antibacterial activity (MIC) without metal” value in [4] is recorded as “no antibacterial activity”. For the same compound, the Cytotoxicity result in series [5] was “no relevant cytotoxicity”. In addition, the “Zn concentration required for full activity / MIC” value in series [6] is 1.25 to 10 µM.

As to `CN(C)CCOc1ccc(/C(=C(/CCCl)c2ccccc2)c2ccccc2)cc1` [toremifene citrate], in series [2], the “Activity class in Zn-dependent screening” value is listed as “Zn-activated”.

Consider `Clc1ccccc1C(c1ccccc1)(c1ccccc1)n1ccnc1` [clotrimazole], for which, in series [2], the “Activity class in Zn-dependent screening” value is recorded as “Zn-activated”.

Turning to `c1ccc(-c2ccc(C(c3ccccc3)n3ccnc3)cc2)cc1` (stereo not shown) [bifonazole], the “Activity class in Zn-dependent screening” value in series [2] was “Zn-activated”.

In the case of `CN(C)Cc1ccc2c(Cl)cc(Cl)c(O)c2n1` [PTB2], the “Zinc concentrations required for antibacterial activity” value in series [7] is 400 to 600 µM.

Turning to `CC[C@H](C)[C@H](N)C1=N[C@H](C(=O)N[C@@H](CC(C)C)C(=O)N[C@H](CCC(=O)O)C(=O)N[C@H](C(=O)N[C@H]2CCCCNC(=O)[C@H](CC(N)=O)NC(=O)[C@@H](CC(=O)O)NC(=O)[C@H](Cc3cnc[nH]3)NC(=O)[C@@H](Cc3ccccc3)NC(=O)[C@H]([C@@H](C)CC)NC(=O)[C@@H](CCCN)NC2=O)[C@@H](C)CC)CS1` [Bacitracin] ({Ileψ(thiazoline)Cys}-L[dE]IK[dOrn]I[dF]H[dD]N; lactam 4-C), the “Activity class in Cu-dependent screening” value in series [2] is “not independent or Cu-dependent action”. The “Activity class in Zn-dependent screening” value in series [2] is “Zn-dependent”. In addition, the KA is 9299 M⁻¹ in series [3] (setting [10]), 738,233 M^−1 in series [3] (setting [11]) and 172,757 M^−1 in [3] (setting [12]). The pKd in series [3] (setting [10]) was 3.97; in series [3] (setting [11]), 5.85 and 5.87; in series [3] (setting [12]) it was 5.24. In addition, in [4], the “Antibacterial activity (MIC) without metal” value is “completely inactive”. Also, the MIC result in series [4] (with 25 μM CuSO4, 1×RPMI 1640, 20 h 37° C.) is “could not be activated by Cu”. Besides, the “Zn concentration required for full activity / MIC” value in [6] came out at 10 µM.

Take bacitracin-Zn: the “MIC of bacitracin-Zn relative to that of AVB-Zn” value in series [4] (with 25 μM ZnSO4) is “four-fold higher”. Also, the MIC / resistance result in [8] (isolate CI-2, with 25 μM ZnSO4) is recorded as “fully resistant”; in [8] (isolate CI-3, with 25 μM ZnSO4), “fully resistant”; in [8] (isolate CI-1321, with Zn), “partially resistance”; in [8] (isolate CI-1323, with Zn), “resistant to bacitracin-Zn at all concentrations tested”; in series [8] (isolate CI-1324, with Zn), “resistant to bacitracin-Zn at all concentrations tested”. Besides, the MIC was 10 µM in series [8] (isolate CI-4, with 25 μM ZnSO4); 10 µM in series [8] (isolate CI-5, with 25 μM ZnSO4); 2 µM in series [8] (isolate CI-1320, with Zn); 2 µM in series [8] (isolate CI-1328, with Zn).

With `c1ccc(CN(CCN(Cc2ccccn2)Cc2ccccn2)Cc2ccccn2)nc1` [TPEN, N,N,N′,N′-tetrakis(2-pyridinylmethyl)-1,2-ethanediamine], the “KD of high-affinity metal chelators” value in [1] is reported as “picomolar to femtomolar range”.

As for `CO[C@H]1/C=C/O[C@@]2(C)Oc3c(C)c(O)c4c(O)c(c(/C=N/N5CCN(C)CC5)c(O)c4c3C2=O)NC(=O)/C(C)=C\C=C\[C@H](C)[C@H](O)[C@@H](C)[C@@H](O)[C@@H](C)[C@H](OC(C)=O)[C@@H]1C` [Rifampicin], the “Day from which resistant clones could be isolated” value in [9] came out at 5 days.
